Where “and” joins values, the source holds several entries; their conditions need not be identical. Equal entries are not always repeated.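 How tested: cells in 96-well plates exposed to compound for 48 hours at five concentrations. GI50 is the concentration that inhibits growth by half. TGI: total growth inhibition.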
Experiments:
Assay in all cases: growth of human tumour cells (NCI), 48 h
NCI-H23 lung = tested on: NCI-H23 lung
MDA-MB-435 = tested on: MDA-MB-435
OVCAR-4 ovarian = tested on: OVCAR-4 ovarian
HCC-2998 colon = tested on: HCC-2998 colon
U251 CNS = tested on: U251 CNS
HL-60(TB) leukemia = tested on: HL-60(TB) leukemia
HCT-15 colon = tested on: HCT-15 colon
NCI-H460 lung = tested on: NCI-H460 lung
KM12 colon = tested on: KM12 colon
DU-145 prostate = tested on: DU-145 prostate

Compound | TGI (NCI-H23 lung) | TGI (MDA-MB-435) | TGI (OVCAR-4 ovarian) | TGI (HCC-2998 colon) | TGI (U251 CNS) | TGI (HL-60(TB) leukemia) | TGI (HCT-15 colon) | TGI (NCI-H460 lung) | TGI (KM12 colon) | TGI (DU-145 prostate) | GI50 (NCI-H23 lung) | GI50 (MDA-MB-435) | GI50 (OVCAR-4 ovarian) | GI50 (HCC-2998 colon) | GI50 (U251 CNS) | GI50 (HL-60(TB) leukemia) | GI50 (HCT-15 colon) | GI50 (NCI-H460 lung) | GI50 (KM12 colon) | GI50 (DU-145 prostate)
CN(C)CCC(=O)N1C/C(=C\c2ccc(Cl)c(Cl)c2)C(=O)/C(=C/c2ccc(Cl)c(Cl)c2)C1 | 1.5 µM | 1.6 µM | 0.777 µM | 0.955 µM | 0.437 µM | 0.162 µM | 0.493 µM | 1.38 µM | 0.948 µM | 0.867 µM | – | – | – | – | – | – | – | – | – | –
CN(c1ccc(NC(=O)Nc2c(Cl)cccc2Cl)cc1)c1ccnc(Nc2cccc(CS(C)(=O)=O)c2)n1 | 18.5 µM | 10.9 µM | 12.5 µM | 16.8 µM | 9.61 µM | > 25 µM | > 25 µM | 11.6 µM | 5.12 µM | 6.72 µM | 2.68 µM | 2.26 µM | 3.12 µM | 4.78 µM | 2.62 µM | 24.6 µM | 5.6 µM | 0.505 µM | 0.104 µM | 3.07 µM
CCCCCCCCCCCCCCCCCCOC[C@H](COP(=O)(O)O[C@H]1[C@H](O)[C@@H](O)[C@H](O)C[C@H]1O)OC | > 100 µM and 35 µM | > 100 µM and 43.8 µM | > 100 µM and 36.8 µM | > 100 µM and 20.5 µM | > 100 µM and 19.2 µM | > 100 µM and 23.3 µM | > 100 µM and 28.9 µM | > 100 µM and 26.1 µM | > 100 µM and 28.1 µM | > 100 µM and 34.5 µM | > 100 µM and 19.3 µM | 65.9 µM and 11.8 µM | > 100 µM and 16 µM | 24.2 µM and 6.97 µM | 33 µM and 5.89 µM | 35 µM and 9.09 µM | 37.2 µM and 14.3 µM | 79.4 µM and 11.7 µM | 25.9 µM and 4.67 µM | > 100 µM and 17.3 µM
COc1ccc2c(c1)NC1=C(C(=O)OC1)C2c1cc(OC)c(OC)c(OC)c1 (configuration not stated) | > 77 µM | < 0.0164 µM | > 100 µM | – | > 100 µM | < 0.01 µM | > 100 µM | > 100 µM | > 100 µM | < 0.01 µM | < 0.01 µM | < 0.01 µM | < 0.0375 µM | < 0.01 µM | < 0.01 µM | < 0.01 µM | < 0.01 µM | < 0.01 µM | < 0.01 µM | < 0.01 µM
C[C@]12CCc3sc(Nc4ccc(OC(F)(F)F)cc4)nc3C1=CC[C@@H]1[C@@H]2CC[C@]2(C)C(=O)CC[C@@H]12 | 21.7 µM | 10.1 µM | 25.8 µM | 18.6 µM | 3.26 µM | 4.44 µM | 4.1 µM | 11.8 µM | 15 µM | 25.1 µM | 3.73 µM | 2.72 µM | 3.31 µM | 5.32 µM | 1.09 µM | 1.93 µM | 1.69 µM | 3.25 µM | 3.56 µM | 4.31 µM
CCOc1cccc(/C=N/NC(=O)c2cccc(Nc3ccnc(C(F)(F)F)c3)c2)c1O | 20.8 µM | > 51.2 µM | 48.6 µM | > 100 µM | > 47.1 µM | 1.01 µM | > 100 µM | 9.53 µM | 17.6 µM | > 47.3 µM | 1.62 µM | 3.1 µM | 0.723 µM | 1.45 µM | 0.886 µM | 0.262 µM | 1.1 µM | 1.17 µM | 1.48 µM | 1.1 µM
N[C@H](C(=O)O)[C@@H]1CC(Cl)=NO1 | > 1000 µM | > 645 µM | > 653 µM | 329 µM | > 1000 µM | – | > 912 µM | > 1000 µM | > 741 µM | > 1000 µM | 38.2 µM | 25.3 µM | – | – | 9.73 µM | 4.89 µM | 8.33 µM | 3.22 µM | – | 99.6 µM
Cc1cc(N(CC(C)Br)CC(C)Br)ccc1N=Nc1ccccc1C(=O)O (configuration not stated) | 18.1 µM | 33.5 µM | 5.53 µM | 6.19 µM | 22 µM | 36.6 µM | 29 µM | 11.7 µM | 27.4 µM | 20 µM | – | – | – | – | – | – | – | – | – | –
CC1(C)N=C(N)N=C(N)N1c1ccc(CCC(=O)Nc2ccc(S(=O)(=O)F)cc2)c(Cl)c1 | > 100 µM | > 100 µM | > 100 µM | > 100 µM | > 100 µM | > 100 µM | > 100 µM | > 100 µM | 28.3 µM | > 100 µM | 0.888 µM | 0.296 µM | 5.51 µM | 0.997 µM | 0.498 µM | 0.142 µM | 2.92 µM | 0.0716 µM | 0.243 µM | 0.593 µM
O=C(Oc1ccc[nH]c1=O)c1cc([N+](=O)[O-])cc([N+](=O)[O-])c1 | > 100 µM | > 100 µM | > 100 µM | > 100 µM | > 100 µM | > 100 µM | > 100 µM | > 100 µM | > 100 µM | > 100 µM | > 100 µM | 51.3 µM | > 100 µM | > 100 µM | > 100 µM | 53.6 µM | 81 µM | 34 µM | 36.3 µM | > 100 µM
O=C1C=CC(=O)C2C1C1(Cl)C(Cl)=C(Cl)C2(Cl)C1(Cl)Cl (configuration not stated) | 26.3 µM | 4.06 µM | > 100 µM | 20.4 µM | 19.1 µM | 11 µM | 22.4 µM | 9.04 µM | 8.95 µM | 15.6 µM | 4.85 µM | 1.69 µM | 7.38 µM | 6.45 µM | 5.76 µM | 2.71 µM | 4.11 µM | 3.06 µM | 2.63 µM | 3.73 µM
COc1ccc2c(c1)C(=O)/C(=C/c1cccc(OCC(=O)c3ccccc3)c1)O2 | 15.8 µM | 13.6 µM | 6.37 µM | 3.16 µM | 20.8 µM | 3.23 µM | 6.83 µM | 36 µM | 16.1 µM | 13.7 µM | 4.37 µM | 3.4 µM | 2.72 µM | 1.74 µM | 7.97 µM | 1.39 µM | 2.42 µM | 14.4 µM | 4.23 µM | 3.9 µM
COc1ccc(C(C#N)NC23CC4CC(CC(C4)C2)C3)cc1 (configuration not stated) | > 100 µM | > 100 µM | > 100 µM | > 100 µM | > 100 µM | > 100 µM | > 100 µM | > 100 µM | > 100 µM | > 100 µM | – | – | – | – | – | – | – | – | – | –
NCCCNCCS | > 100 µM | > 100 µM | > 100 µM | > 100 µM | > 100 µM | > 100 µM | > 100 µM | > 100 µM | > 100 µM | > 100 µM | – | – | – | – | – | – | – | – | – | –
Nc1n[nH]c2cccc(C#Cc3cccc(NC(=O)c4cccc(C(F)(F)F)c4)c3)c12 | 15.8 µM | 13.7 µM | 17.7 µM | 7.31 µM | 17.2 µM | 4.55 µM | 13.6 µM | 15.7 µM | 19.8 µM | 17.6 µM | 2.86 µM | 3.04 µM | 3.67 µM | 2.43 µM | 5.32 µM | 0.875 µM | 2.92 µM | 4.11 µM | 4.52 µM | 5.69 µM
CNC(=O)OCc1nc(SSC(C)(C)C)n(C)c1COC(=O)NC | 8.11 µM | 16 µM | 4.3 µM | 22.4 µM | 25.6 µM | 2.66 µM | 4.14 µM | 26.6 µM | 38.8 µM | 33.3 µM | – | – | – | – | – | – | – | – | – | –
CCN(CC)CCCC(CCl)Nc1ccnc2cc(Cl)ccc12 (configuration not stated) | 38.3 µM and > 60.2 µM | 28.3 µM and 19.3 µM | > 100 µM | 27.8 µM | 69.7 µM and > 100 µM | 72.8 µM and > 31.6 µM | > 100 µM | 56.4 µM and > 100 µM | 34 µM and 50.6 µM | > 100 µM | 17.9 µM and 22.1 µM | 14.6 µM and 6.64 µM | 35.8 µM and 30.9 µM | 11.9 µM | 23.4 µM and > 50 µM | 15.5 µM and 7.99 µM | 24.9 µM and 23.9 µM | 19.6 µM and 24.3 µM | 16.7 µM and 16.2 µM | 49.6 µM and 47.1 µM
Oc1ccc2ccccc2c1N=Nc1cccc2ccccc12 | > 100 µM | > 100 µM | > 100 µM | > 100 µM | > 100 µM | > 100 µM | > 100 µM | > 100 µM | > 100 µM | > 100 µM | – | – | – | – | – | – | – | – | – | –
COCCOC(=O)C1=C(O)c2ccccc2S(=O)(=O)N1C | > 100 µM | > 100 µM | > 100 µM | > 100 µM | > 100 µM | > 100 µM | > 100 µM | > 100 µM | > 100 µM | > 100 µM | – | – | – | – | – | – | – | – | – | –
CC(C)(C)c1cc([N+](=O)[O-])cc([N+](=O)[O-])c1O | > 10 µM | > 10 µM | > 10 µM | > 10 µM | > 10 µM | > 10 µM | > 10 µM | > 10 µM | > 10 µM | > 10 µM | – | – | – | – | – | – | – | – | – | –
Cc1ccc(C2=C(c3ccc(C)cc3)C3(c4ccc(C)cc4)C4C(=O)OC(=O)C4C2(c2ccc(C)cc2)S3=O)cc1 (configuration not stated) | 41.8 µM | 63.7 µM | > 100 µM | 55.5 µM | 24.9 µM | > 100 µM | > 100 µM | > 100 µM | 76.1 µM | > 100 µM | 18.2 µM | 17.5 µM | 59.6 µM | 21.5 µM | 6.31 µM | 25.5 µM | 33.5 µM | 24.9 µM | 22.9 µM | 47.6 µM
Cc1cn(-c2cc(NC(=O)c3cccc(C#Cc4cccc5[nH]nc(N)c45)c3)cc(C(F)(F)F)c2)cn1 | > 100 µM | 37 µM | 21.2 µM | > 100 µM | 20.3 µM | 32.6 µM | > 100 µM | 16.7 µM | > 100 µM | 40.7 µM | 4.61 µM | 3.74 µM | 2.93 µM | 3.17 µM | 5.15 µM | 3.22 µM | 4.49 µM | 4.13 µM | 1.29 µM | 10.3 µM
COc1ccc2c(c1)OC1=C(C(=O)OC1)C2c1cc(OC)c2c(c1)OCCO2 (configuration not stated) | > 100 µM | 0.056 µM | > 100 µM | – | – | 0.174 µM | > 100 µM | > 100 µM | > 100 µM | – | 0.0454 µM | 0.021 µM | 0.173 µM | 0.0781 µM | 0.0433 µM | 0.042 µM | 0.0531 µM | 0.0408 µM | 0.0464 µM | 0.0915 µM

From PubChem BioAssay (NCI)
